From patent US20260324636A1, “COMPOSITION FOR PROVIDING PLANT WITH STRESS RESISTANCE” (KIRIN HOLDINGS KABUSHIKI KAISHA, priority 2022, published 2026)

Tested on: hop
Test: High-temperature stress resistance in hop (fresh weight of aboveground part), Example 4
Assay type: in vivo, hop (variety: Saaz)
Conditions: 0.1 mM in agar medium, 30° C. 2 weeks
Method: A hop strain (the variety: Saaz) was used as an experimental material. Hop seedlings were purchased from Hananoyakata (http://hananoyakata.shop-pro.jp).
Tissue-cultured seedlings required for evaluation of high temperature response of a hop were prepared in a laboratory. A stem fragment including a node was removed from a Saaz seedling as an explant and incubated with 70 (v/v) % ethanol (FUJIFILM Wako) for 1 minute and with 1 (v/v) % sodium hypochlorite (FUJIFILM Wako) for 5 minutes for sterilization. The explant was washed with sterile water for 1 minute, washing was repeated 3 times, moisture was removed therefrom with a paper towel, the explant was inoculated in an agar medium containing a ½ Murashige and Skoog Plant Salt Mixture, 2 (w/v) % glucose, and 0.2 (w/v) % gellan gum (FUJIFILM Wako), and culture was initiated in an incubator. The incubator was maintained at a temperature of 20° C. for a daily cycle of 16 hours light and 8 hours darkness. Two weeks after the initiation of culture, axillary buds extending from the nodes were cut and inoculated into an agar medium, and the sufficiently grown seedlings were designated as “tissue-cultured seedlings.” Tissue-cultured seedlings were subcultured by inoculating apical buds into fresh agar media every 1.5 months. […]

SMILES: CC(=O)N[C@@H](CCC(=O)O)C(=O)O [N-acetylglutamic acid]
- fresh weight of the aboveground part, increase relative to the group not subjected to the treatment: 1.8 times
- decrease in the fresh weight of the aboveground part caused by the high-temperature treatment (vs control group): suppressed
